Measured values as given in US20190093170A1, “USE OF TRANSLATIONAL PROFILING TO IDENTIFY TARGET MOLECULES FOR THERAPEUTIC TREATMENT” (THE REGENTS OF THE UNIVERSITY OF CALIFORNIA, priority 2013, published 2019).

Test system: PC3 human prostate cancer cells
Assay: RNA-seq mRNA abundance (part of ribosome profiling experiment);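 also: average poly(A) RNA-seq read density per codon over the coding sequence, excluding 15 initial and 5 final codons, mapped to hg19 transcripts, taken as mRNA abundance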
Type: cell-based
Conditions: for Rapamycin mRNA: 3-hour treatment with rapamycin (50 nM) in PC3 cells
Description: Cells were subsequently treated with cycloheximide (100 μg ml^−1; Sigma) and detergent lysis was performed in the dish. The lysate was treated with DNase and clarified, and a sample was taken for RNA-seq analysis. Lysates were subjected to ribosome footprinting by nuclease treatment. Ribosome-protected fragments were purified, and deep sequencing libraries were generated from these fragments, as well as from poly(A) mRNA purified from non-nuclease-treated lysates. These libraries were analyzed by sequencing on an Illumina GAII.
Ribosome footprint and RNA-seq sequencing reads were aligned against a library of transcripts from the UCSC Known Genes database GRCh37/hg19. The first 25 nucleotides of each read were aligned using Bowtie and this initial alignment was then extended to encompass the full fragment-derived portion of the sequencing read while excluding the linker sequence. Read density profiles were then constructed for the canonical transcript of each gene, using only reads with 0 or 1 total mismatches between the read sequence and the reference sequence, comprised of the transcript fragment followed by the linker sequence. Footprint reads were assigned to an A site nucleotide at position +15 to +17 of the alignment, based on the total fragment length; mRNA reads were assigned to the first nucleotide of the alignment. The average read density per codon was then computed for the coding sequence of each transcript, excluding the first 15 and last 5 codons, which can display atypical ribosome accumulation.
Average read density was used as a measure of mRNA abundance (RNA-seq reads) and of protein synthesis (ribosome profiling reads). For most analyses, genes were filtered to require at least 256 reads in the relevant RNA-seq samples. Translational efficiency was computed as the ratio of ribosome footprint read density to RNA-seq read density, scaled to normalize the translational efficiency of the median gene to 1.0 after excluding regulated genes (log 2 fold-change+1.5 after normalizing for the all-gene median). Changes in protein synthesis, mRNA abundance and translational efficiency were similarly computed as the ratio of read densities between different samples, normalized to give the median gene a ratio of 1.0. This normalization corrects for differences in the absolute number of sequencing reads obtained for different libraries.

CO[C@H]1C[C@@H]2CC[C@@H](C)[C@@](O)(O2)C(=O)C(=O)N2CCCC[C@H]2C(=O)O[C@H]([C@H](C)C[C@@H]2CC[C@@H](O)[C@H](OC)C2)CC(=O)[C@H](C)/C=C(\C)[C@@H](O)[C@@H](OC)C(=O)[C@H](C)C[C@H](C)/C=C/C=C/C=C/1C [Rapamycin, rapamycin]
Rapamycin mRNA (gene ACD): −0.96 | mRNA (gene ACTG1): 0.02 | mRNA (gene AGRN): 0.01 | mRNA (gene ALKBH7): 0.06 | mRNA (gene AP2A1): 0.09 | mRNA (gene ARD1A): −0.04 | mRNA (gene ATP5G2): 0.29 | Rapamycin mRNA (gene C17orf28): −0.44 | mRNA (gene C21orf66): −0.30 | Rapamycin mRNA (gene CCNA1): −0.51 | mRNA (gene CCNI): 0.29 | mRNA (gene CD44): 0.34 | mRNA (gene CIRBP): 0.14 | mRNA (gene CLPTM1): 0.07 | mRNA (gene COL6A2): −0.08 | mRNA (gene CRTAP): 0.29 | Rapamycin mRNA (gene DDX51): −0.24 | Rapamycin mRNA (gene DGCR2): −0.66 | mRNA (gene ECSIT): −0.04 | Rapamycin mRNA (gene EEF1A1): 0.46 | mRNA (gene EEF1A2): 0.03 | mRNA (gene EEF1D): 0.18 | mRNA (gene EEF1G): 0.21 | mRNA (gene EEF2): 0.39 | mRNA (gene EIF3H): 0.16 | mRNA (gene EIF3L): 0.28 | mRNA (gene EIF4B): 0.55 | mRNA (gene EVPL): −0.08 | mRNA (gene FAM83H): −0.17 | mRNA (gene FAM128B): 0.06 | mRNA (gene FASN): −0.37 | mRNA (gene GLTSCR2): 0.31 | mRNA (gene GNB2L1): 0.19 | Rapamycin mRNA (gene GTPBP3): −0.73 | mRNA (gene HNRNPA1): 0.18 | mRNA (gene HSPA8): −0.21 | mRNA (gene IMPDH2): 0.11 | mRNA (gene LAMA5): −0.32 | mRNA (gene LMF2): 0.22 | Rapamycin mRNA (gene MAPK6): 0.13 | Rapamycin mRNA (gene MAPKAPK2): −0.21 | mRNA (gene MTA1): 0.00 | mRNA (gene NCLN): −0.05 | Rapamycin mRNA (gene NFATC21P): −0.16 | Rapamycin mRNA (gene NR2F1): 0.05 | mRNA (gene PABPC1): 0.35 | mRNA (gene PABPC4): 0.24 | mRNA (gene PACS1): 0.07 | mRNA (gene PFDN5): 0.11 | mRNA (gene PGLS): 0.03 | mRNA (gene PGM1): 0.40 | mRNA (gene PNKP): −0.24 | Rapamycin mRNA (gene PRKD3): −0.22 | mRNA (gene PTGES2): −0.19 | mRNA (gene RABGGTB): −0.20 | mRNA (gene RPL3): 0.18 | mRNA (gene RPL4): 0.22 | mRNA (gene RPL7): 0.15 | mRNA (gene RPL7A): 0.17 | mRNA (gene RPL9): 0.16 | mRNA (gene RPL10): 0.09 | mRNA (gene RPL10A): 0.16 | mRNA (gene RPL11): 0.09 | mRNA (gene RPL12): 0.07 | mRNA (gene RPL13): 0.14 | mRNA (gene RPL13A): 0.15 | mRNA (gene RPL15): 0.11 | mRNA (gene RPL18A): 0.17 | mRNA (gene RPL19): 0.14 | mRNA (gene RPL21): 0.14 | mRNA (gene RPL22): 0.08 | mRNA (gene RPL24): 0.11 | mRNA (gene RPL26): 0.15 | mRNA (gene RPL27): 0.05 | mRNA (gene RPL27A): 0.06 | mRNA (gene RPL28): 0.24 | Rapamycin mRNA (gene RPL28): 0.64 | mRNA (gene RPL31): −0.02 | mRNA (gene RPL32): 0.22 | mRNA (gene RPL34): 0.11 | mRNA (gene RPL36A): 0.13 | mRNA (gene RPL37A): 0.08 | mRNA (gene RPL39): 0.17 | Rapamycin mRNA (gene RPL39): 0.30 | mRNA (gene RPL41): 0.04 | mRNA (gene RPLP0): 0.15 | mRNA (gene RPLP1): 0.28 | mRNA (gene RPLP2): 0.26 | mRNA (gene RPS2): 0.07 | mRNA (gene RPS3): 0.22 | mRNA (gene RPS3A): 0.22 | mRNA (gene RPS4X): 0.18 | mRNA (gene RPS5): 0.14 | mRNA (gene RPS7): 0.11 | mRNA (gene RPS9): 0.10 | mRNA (gene RPS12): 0.11 | mRNA (gene RPS13): 0.07 | mRNA (gene RPS14): 0.10 | mRNA (gene RPS15): −0.01 | mRNA (gene RPS15A): 0.07 | mRNA (gene RPS19): 0.15 | mRNA (gene RPS20): 0.18 | Rapamycin mRNA (gene RPS20): 0.14 | mRNA (gene RPS21): −0.01 | mRNA (gene RPS25): 0.04 | mRNA (gene RPS27): 0.10 | Rapamycin mRNA (gene RPS27): 0.07 | mRNA (gene RPS27A): 0.16 | mRNA (gene RPS28): 0.01 | Rapamycin mRNA (gene SDCCAG10): −0.19 | mRNA (gene SLC19A1): -0.36 | mRNA (gene TKT): 0.02 | mRNA (gene TPT1): 0.24 | mRNA (gene TSC2): −0.15 | mRNA (gene UBA52): 0.12 | Rapamycin mRNA (gene UBTD2): 0.19 | Rapamycin mRNA (gene UCHL5): −0.08 | Rapamycin mRNA (gene VHL): −0.23 | mRNA (gene VIM): 0.36 | mRNA (gene YB1): 0.11
